# Reference: patent publication US11052082B2 (priority 2012, dated 2021)
# Entries after “also recorded” stand apart in the source; their conditions may differ. Counter-ions that a name gives are not always drawn. Peptide text beside a SMILES is read from it. * marks the point of attachment. Cbz = O=C(OCc1ccccc1)*; CH2F = FC*
# How the values were obtained:
# [1] = tested on: BCP-ALL-cell line Tanoue; experiment: Doxorubicin uptake and efflux, Tanoue; format: cell-based, human
# [2] = tested on: glioblastoma cell line A172; experiment: Doxorubicin uptake and efflux, A172; format: cell-based; conditions: 0.3 μg/mL doxorubicin
# [3] = tested on: pre-B-ALL-SCID; experiment: Apoptosis induction in xenograft-derived BCP-ALL cells; format: cell-based, human; conditions: therapeutic concentrations of D,L-methadone alone; moderate opioid-receptor level
# [4] = Tolerability (body weight, maximum tolerated dose) in ALL-SCID6 xenograft mice; conditions: same regimen as tumour growth study
# [5] = tested on: U87MG glioblastoma; experiment: U87MG glioblastoma xenograft tumour growth; format: in vivo, nude-mice; conditions: days 19 to 33
# [6] = Tolerability (body weight) in U87MG xenograft mice; conditions: D,L-methadone 60 to 240 mg/kg/d
# [7] = tested on: BCP-ALL-cell lines (Tanoue, Reh, Nalm6); experiment: Apoptosis induction in BCP-ALL-cell lines; format: cell-based, human; conditions: D,L-methadone alone; 120 h
# [8] = tested on: caspase-8, -9, -3, PARP, XIAP, Bcl-xL in JIMT-1 cells; experiment: Western blot of apoptosis effectors in JIMT-1; format: cell-based, human; conditions: D,L-methadone 10, 3, 1 μg/mL + 0.015 μg/mL doxorubicin; 96 h
# [9] = tested on: human T cell leukemia, human acute myeloid leukemia, human B cell precursor leukemia, human B cell leukemia; experiment: Apoptosis in different leukemia cells, D,L-methadone plus cisplatin; format: cell-based
# [10] = tested on: apoptosis pathways in glioblastoma-initiating stem cells; experiment: Western blot of apoptosis pathways in glioblastoma-initiating stem cells; format: cell-based; conditions: 3 μg/mL D,L-methadone + 0.1 μg/mL doxorubicin; 144 h
# [11] = tested on: caspases, PARP, XIAP, Bcl-xL in glioblastoma cells A172; experiment: Western blot of apoptosis effectors in A172; format: cell-based
# [12] = tested on: leukemia cancer cells (Nalm-6), pancreatic cancer cells (Colo357), ovarian cancer cells (A2780); experiment: Sensitization for etoposide or cisplatin treatment; format: cell-based; conditions: 0.03 μg/mL etoposide or 0.3 μg/mL cisplatin; D,L-methadone 10, 3, 1 μg/mL; 120 to 144 h
# [13] = tested on: glioblastoma cells A172; experiment: Apoptosis / cell death in glioblastoma cells A172; format: cell-based; conditions: for effect on apoptosis induced by combination treatment with D,L-methadone and doxorubicin: 100 μg/mL naloxone or 25 μM IBMX, 3 μg/mL D,L-methadone, 0.3 μg/mL doxorubicin, 120 h
# [14] = tested on: BCP-ALL-cell line Tanoue; format: cell-based, human; conditions: for effect on apoptosis rates of combination treatment with D,L-methadone and doxorubicin: 3 μg/mL D,L-methadone + 0.06 μg/mL doxorubicin, 60 μg/mL naloxone, 200 μM IBMX or PTX
# [15] = tested on: opioid receptor on promyelocytic leukemia cell line HL60; experiment: Opioid receptor expression, HL60; format: cell-based, human; conditions: 0.3 μg/mL cisplatin; 24 h
# Protocol: (§1) Cells were washed in PBS supplemented with 1% FCS, centrifuged and resuspended in PBS/1% FCS containing naloxone-fluoresceine (0.05 mM, Invitrogen) (Hedin et al., 1997). After 30 min of incubation at RT, the cells were washed twice with PBS/1% FCS, centrifuged and resuspended in icecold PBS/1% FCS. Flowcytometry analysis was performed using FACSCalibur (BD, Heidelberg, Germany).
# After staining of cisplatin-treated (+Cisplatin) and untreated cells (−Cisplatin) with naloxone-fluoresceine relative fluorescence intensities were determined flowcytometrically. 2.1-fold increase in opioid receptor expression is shown after subtracting the cells autofluorescence.
# [16] = tested on: Pancreatic cancer cells Colo 357; experiment: Cell death in pancreatic cancer cells; format: cell-based
# [17] = tested on: A2780 ovarian cancer cells; experiment: Cell death in A2780 ovarian cancer cells; format: cell-based; conditions: 2 μg/mL cisplatin alone; 144 h
# [18] = tested on: opioid-receptors on BCP-ALL-cell line Tanoue; experiment: Flow cytometric cell surface opioid-receptor expression, Tanoue; format: cell-based, human; conditions: 0.06 μg/mL doxorubicin; 96 h
# Protocol: as §1
# (A) Doxorubicin enhances opioid receptor expression on the cells' surface. The BCP-ALL-cell line Tanoue was treated for 96 h with 0.06 μg/mL doxorubicin. After staining of doxorubicin-treated (+Doxo) and untreated cells (−Doxo) with naloxone-fluoresceine relative fluorescence intensities were determined flowcytometrically. X-fold increase in opioid receptor expression is shown after subtracting the cells' autofluorescence (−Doxo) and doxorubicin fluorescence (+Doxo).
# [19] = tested on: opioid receptor on glioblastoma cell line A172; experiment: Opioid receptor expression, A172; format: cell-based; conditions: 0.1 μg/mL doxorubicin; 106 h
# Protocol: as §1
# (A) The glioblastoma cell line A172 was treated for 106 h with 0.1 μg/mL doxorubicin. After staining of doxorubicin-treated (doxorubicin) and untreated cells with naloxone-fluorescein (naloxone) relative fluorescence intensities were determined flowcytometrically. (B) Tabular summary of untreated and doxorubicin control cells, naloxone treated cells, whereas D(naloxone-control) represents the median fluorescence intensities after subtracting the cells' autofluorescence (control).
# [20] = tested on: Trastuzumab resistant breast cancer cells JIMT-1; experiment: Apoptosis / cell death in JIMT-1 breast cancer cells; format: cell-based, human
# [21] = tested on: ALL-SCID6 xenograft; experiment: Patient-derived ALL-xenograft tumour growth; format: in vivo, NOD/SCID/IL2ry null (NSG) mice; conditions: D,L-methadone orally day 1-76, 20 up to 120 mg/kg/day; doxorubicin 3 mg/kg i.v. day 46, 53, 60, 76
# [22] = Serum concentrations in ALL-SCID6 xenograft mice; conditions: male, NOD/SCID/IL2ry null (NSG), mouse, in vivo, 3 mg/kg
# [23] = tested on: glioblastoma cells; experiment: Apoptosis / cell death in glioblastoma cells (opioid comparison, naloxone); format: cell-based; conditions: 60 μg/mL naloxone, 3 μg/mL D,L-methadone, 0.1 μg/mL doxorubicin; 120 h and 144 h
# [24] = tested on: caspase-2, caspase-9, caspase-3, PARP, XIAP, Bcl-xL in BCP-ALL-cell line Tanoue; experiment: Western blot analysis of apoptosis effectors in Tanoue; format: cell-based, human; conditions: 60 μg/mL naloxone; 96 h
compound,measurement,setting,value
"CCC(=O)C(CC(C)N(C)C)(c1ccccc1)c1ccccc1 (racemic) [D,L-methadone, D,L-methadone hydrochloride]",doxorubicin efflux,[1]; 8 h and 24 h after removing doxorubicin,reduced the doxorubicin efflux strongly
same,doxorubicin uptake,"[1]; co-incubation with 0.3 μg/mL doxorubicin, 24 h (0 h)",enhanced doxorubicin concentration in the cells
same,doxorubicin efflux,[2],inhibit the efflux
same,doxorubicin uptake,"[2]; 10 μg/mL D,L-methadone",enhance the uptake
same,cell death induction,[3],only be slightly killed
same,body weight changes,[4],−8%
same,optimum T/C value,"[5]; D,L-methadone orally daily, 60 to 120 to 240 mg/kg/d bid",49%
same,tumour size vs vehicle,[5],significantly reduced tumour size
same,body weight loss,[6],9%
same,cell death induction,[7],only be killed slightly
same,caspases activation,[8],restored deficient caspases activation by doxorubicin
same,cell death induction,"[9]; D,L-methadone alone (−CDDP)",only be killed slightly
same,activation of apoptosis pathways,[10],reversed deficient activation of apoptosis pathways by doxorubicin
same,caspases activation,"[11]; D,L-methadone 3, 1 μg/mL + 0.1 μg/mL doxorubicin, 144 h",restored deficient caspases activation by doxorubicin
same,sensitization for etoposide or cisplatin treatment,[12],sensitizes
"CC(C)Cn1c(=O)n(C)c(=O)c2[nH]cnc21 [IBMX, 3-Isobutyl-1-methylxanthine]","effect on apoptosis induced by combination treatment with D,L-methadone and doxorubicin",[13]; 144 h,strongly reduced apoptosis induction
same,effect on doxorubicin-induced apoptosis,"[14]; 200 μM IBMX, 0.06 μg/mL doxorubicin, 96 h",decreased doxorubicin-induced apoptosis
same,"effect on apoptosis rates of combination treatment with D,L-methadone and doxorubicin",[14]; 96 h,strongly reduced the apoptosis rates
N.N.[Cl][Pt][Cl] [cisplatin],increase in opioid receptor expression,[15],2.1 fold
same,cell death,"[16]; 10 μg/mL alone, 120 h",60%
same,cell death,"[16]; 10 μg/mL cisplatin alone, 144 h",70%
same,cell death,[17],90%
COc1cccc2c1C(=O)c1c(O)c3c(c(O)c1C2=O)C[C@@](O)(C(=O)CO)C[C@@H]3O[C@H]1C[C@H](N)[C@H](O)[C@H](C)O1 [doxorubicin],body weight changes,[4],−4%
same,opioid-receptor expression,[18],strongly increased opioid-receptor expression
same,increase in opioid receptor expression,[19],6 fold
same,cell death,"[20]; 0.1 μg/mL doxorubicin alone, 120 h",70%
same,cell death,"[13]; 1 μg/mL doxorubicin alone, 144 h",80%
same,tumour growth inhibition,[21],significant inhibition of tumour growth
same,serum concentrations of doxorubicin,[22],156 to 198 ng/mL
C=CCN1CC[C@]23c4c5ccc(O)c4O[C@H]2C(=O)CC[C@@]3(O)[C@H]1C5 [naloxone],"effect on apoptosis rates of combination treatment with D,L-methadone and doxorubicin",[23],strongly reduced the apoptosis rates
same,"effect on apoptosis induced by combination treatment with D,L-methadone and doxorubicin","[20]; 100 μg/mL naloxone, 10 μg/mL D,L-methadone, 0.01 μg/mL doxorubicin, 96 h",strongly reduced apoptosis; also recorded: strongly inhibits apoptosis induction
same,"effect on caspase activation and PARP cleavage by D,L-methadone in addition to doxorubicin",[24],"drastically reduced the activation of caspase-9, caspase-2 and caspase-3"
same,"effect on activation of caspase-9, caspase-3 and cleavage of PARP by combination treatment","[11]; 100 μg/mL naloxone, 120 h",strongly reduced
same,"effect on apoptosis induced by combination treatment with D,L-methadone and doxorubicin",[13]; 144 h,strongly reduced apoptosis
"CC(C)[C@H](NC(=O)OCc1ccccc1)C(=O)N[C@@H](C)C(=O)N[C@@H](CC(=O)O)C(=O)CF [zVAD.fmk, benzoylcarbonyl-Val-Ala-Asp-fluoromethylketone] (Cbz-Val-Ala-Asp-CH2F)","effect on apoptosis induced by D,L-methadone in addition to cisplatin","[16]; 50 μmol/L zVAD.fmk, cisplatin 0.7 or 0.5 μg/mL",almost completely inhibited apoptosis
same,"effect on apoptosis induced by D,L-methadone in addition to oxaliplatin","[16]; 50 μmol/L zVAD.fmk, oxaliplatin 3 or 2 μg/mL",almost completely inhibited apoptosis
same,"effect on cell death after combination treatment with D,L-methadone and cisplatin",[9]; zVAD.fmk pre-incubation,strongly decreased cell death
same,"effect on apoptosis induced by cotreatment of D,L-methadone and doxorubicin","[20]; 50 μmol/L zVAD.fmk, 0.015 μg/mL doxorubicin, 96 h, 120 h",blocks apoptosis
same,"effect on apoptosis induced by cotreatment of D,L-methadone and doxorubicin","[13]; 50 μmol/L zVAD.fmk, 0.1 μg/mL doxorubicin, 120 h and 144 h",blocks apoptosis
same,"effect on cell death after combination treatment with D,L-methadone and doxorubicin","[14]; 50 μM zVAD.fmk pre-incubation, 0.06 μg/mL doxorubicin, 120 h",strongly decreased cell death
pertussis toxin [PTX],"effect on apoptosis rates of combination treatment with D,L-methadone and doxorubicin",[14]; 96 h,strongly reduced the apoptosis rates
